Results reported in PubChem BioAssay AID248 (DTP/NCI, 2004).
Where “and” joins values, the source holds several entries; their conditions need not be identical. Identical values can stand only once. Toxic doses and inconclusive results are not listed. Rule as the data show it: active = T/C of 150% or more; inactive = T/C below 125%.

Test system: L1210 leukemia ip in BDF1 mice, survival T/C
Experiment: NCI In Vivo Anticancer Drug Screen. Data for tumor model L1210 Leukemia (intraperitoneal) in B6D2F1 (BDF1) mice
Settings: endpoint: mean survival time, higher = longer survival
Procedure, shortened: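 Read-out is survival time, reported as the treated-group measurement over the vehicle-control measurement.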

[1] = dose: 100.0 mg/kg/injection, schedule: Q01DX009 (ip), vehicle: saline with Tween-80
[2] = dose: 200.0 mg/kg/injection, schedule: Q01DX009 (ip), vehicle: saline with Tween-80
[3] = dose: 400.0 mg/kg/injection, schedule: Q01DX009 (ip), vehicle: saline with Tween-80
[4] = dose: 25.0 mg/kg/injection, schedule: Q04DX003 (ip), vehicle: saline
[5] = dose: 50.0 mg/kg/injection, schedule: Q04DX003 (ip), vehicle: saline
[6] = dose: 100.0 mg/kg/injection, schedule: Q01DX001 (ip), vehicle: saline
[7] = dose: 100.0 mg/kg/injection, schedule: Q04DX003 (ip), vehicle: saline
[8] = dose: 100.0 mg/kg/injection, schedule: Q04DX002 (ip), vehicle: saline with Tween-80
[9] = dose: 200.0 mg/kg/injection, schedule: Q04DX002 (ip), vehicle: saline with Tween-80
[10] = dose: 400.0 mg/kg/injection, schedule: Q04DX002 (ip), vehicle: saline with Tween-80
[11] = dose: 100.0 mg/kg/injection, schedule: Q04DX002 (ip), vehicle: Klucel (hydroxypropylcellulose) (HPC)
[12] = dose: 200.0 mg/kg/injection, schedule: Q04DX002 (ip), vehicle: Klucel (hydroxypropylcellulose) (HPC)
[13] = dose: 400.0 mg/kg/injection, schedule: Q01DX001 (ip), vehicle: saline
[14] = dose: 200.0 mg/kg/injection, schedule: Q04DX003 (ip), vehicle: saline
[15] = dose: 400.0 mg/kg/injection, schedule: Q04DX003 (ip), vehicle: saline
[16] = dose: 100.0 mg/kg/injection, schedule: Q04DX003 (ip), vehicle: Klucel (hydroxypropylcellulose) (HPC)
[17] = dose: 200.0 mg/kg/injection, schedule: Q01DX001 (ip), vehicle: saline
[18] = dose: 100.0 mg/kg/injection, schedule: Q01DX009 (ip), vehicle: Klucel (hydroxypropylcellulose) (HPC)
[19] = dose: 200.0 mg/kg/injection, schedule: Q01DX009 (ip), vehicle: Klucel (hydroxypropylcellulose) (HPC)
[20] = dose: 200.0 mg/kg/injection, schedule: Q04DX003 (ip), vehicle: Klucel (hydroxypropylcellulose) (HPC)
[21] = dose: 400.0 mg/kg/injection, schedule: Q01DX009 (ip), vehicle: Klucel (hydroxypropylcellulose) (HPC)
[22] = dose: 400.0 mg/kg/injection, schedule: Q04DX003 (ip), vehicle: Klucel (hydroxypropylcellulose) (HPC)
[23] = dose: 100.0 mg/kg/injection, schedule: Q01DX001 (ip), vehicle: other
[24] = dose: 200.0 mg/kg/injection, schedule: Q01DX001 (ip), vehicle: other
[25] = dose: 100.0 mg/kg/injection, schedule: Q01DX001 (ip), vehicle: Klucel (hydroxypropylcellulose) (HPC)
[26] = dose: 200.0 mg/kg/injection, schedule: Q01DX001 (ip), vehicle: Klucel (hydroxypropylcellulose) (HPC)
[27] = dose: 400.0 mg/kg/injection, schedule: Q01DX001 (ip), vehicle: Klucel (hydroxypropylcellulose) (HPC)

Measured: T/C

CCOC(=O)/C(Cc1cnc2ccccc2n1)=N\O
inactive: [1] 94 % of control | dose: 100.0 mg/kg/injection, schedule: Q04DX003 (ip), vehicle: saline with Tween-80 105 % of control | [2] 96 % of control | dose: 200.0 mg/kg/injection, schedule: Q04DX003 (ip), vehicle: saline with Tween-80 100 % of control | [3] 100 % of control | dose: 400.0 mg/kg/injection, schedule: Q04DX003 (ip), vehicle: saline with Tween-80 105 % of control

CC(C)[P+](c1ccccc1)(c1ccccc1)c1ccccc1
inactive: dose: 5.0 mg/kg/injection, schedule: Q01DX001 (ip), vehicle: saline 108 % of control | dose: 10.0 mg/kg/injection, schedule: Q01DX001 (ip), vehicle: saline 111 % of control | dose: 16.25 mg/kg/injection, schedule: Q01DX009 (ip), vehicle: saline 100 % of control | dose: 20.0 mg/kg/injection, schedule: Q01DX001 (ip), vehicle: saline 118 % of control | [4] 113 % of control | dose: 40.0 mg/kg/injection, schedule: Q01DX001 (ip), vehicle: saline 113 % of control | [5] 103 % of control | dose: 65.0 mg/kg/injection, schedule: Q04DX003 (ip), vehicle: saline 107 % of control and 116 % of control | [6] 108 % of control | [7] 118 % of control | dose: 150.0 mg/kg/injection, schedule: Q04DX003 (ip), vehicle: saline 90 % of control

COc1ccc(C(=O)Nc2cccc(C(F)(F)F)c2)cc1
inactive: dose: 100.0 mg/kg/injection, schedule: Q01DX001 (ip), vehicle: saline with Tween-80 97 % of control | [1] 100 % of control | [8] 100 % of control and 105 % of control | dose: 200.0 mg/kg/injection, schedule: Q01DX001 (ip), vehicle: saline with Tween-80 100 % of control | [2] 121 % of control | [9] 100 % of control and 108 % of control | dose: 400.0 mg/kg/injection, schedule: Q01DX001 (ip), vehicle: saline with Tween-80 98 % of control | [3] 118 % of control | [10] 107 % of control and 90 % of control

O=C(Nc1ccc(Br)cc1)Oc1ccccc1C(=O)OCc1ccccc1
inactive: [11] 97 % of control | [12] 87 % of control

CCN(CC)CCOc1c(C(C)C)cccc1C(C)C
inactive: dose: 12.5 mg/kg/injection, schedule: Q01DX009 (ip), vehicle: saline 101 % of control | dose: 25.0 mg/kg/injection, schedule: Q01DX009 (ip), vehicle: saline 108 % of control | dose: 50.0 mg/kg/injection, schedule: Q01DX009 (ip), vehicle: saline 108 % of control and 89 % of control | [7] 117 % of control

CCCCCCCCCCCCCCCCS(=O)(=O)N/N=C/c1ccc([N+](=O)[O-])cc1
inactive: dose: 100.0 mg/kg/injection, schedule: Q01DX001 (ip), vehicle: carboxymethylcellulose (CMC) 94 % of control | dose: 200.0 mg/kg/injection, schedule: Q01DX001 (ip), vehicle: carboxymethylcellulose (CMC) 87 % of control | dose: 400.0 mg/kg/injection, schedule: Q01DX001 (ip), vehicle: carboxymethylcellulose (CMC) 105 % of control

C1CCC2CC3CCCCC3CC2C1 (configuration not stated)
inactive: [6] 90 % of control | [13] 102 % of control

CCCC(=O)N1CCCCC1C (configuration not stated)
inactive: [11] 112 % of control | [12] 89 % of control

C#CCN(CC#C)CC#C
inactive: [4] 103 % of control | [5] 94 % of control

Cc1ncc(CO)c(CO)c1O
inactive: [7] 101 % of control | [14] 100 % of control | [15] 96 % of control

CCOC(=O)C1(C(=O)OCC)C(C)CC2Nc3cc4c(cc3C(=O)N21)OCO4 (configuration not stated)
inactive: dose: 25.0 mg/kg/injection, schedule: Q04DX003 (ip), vehicle: Klucel (hydroxypropylcellulose) (HPC) 94 % of control | dose: 50.0 mg/kg/injection, schedule: Q04DX003 (ip), vehicle: Klucel (hydroxypropylcellulose) (HPC) 101 % of control | [16] 97 % of control

COC1CC(OC(=O)c2ccc(C)cc2)C(COC(=O)c2ccc(C)cc2)O1 (configuration not stated)
inactive: [7] 98 % of control | [14] 102 % of control | [15] 98 % of control

CC(=O)Cc1cc(C)nc(NC#N)n1
inactive: [11] 102 % of control | [12] 98 % of control

[Co+3].[NH-]CC(=O)[O-].[NH-]CCN(CC[NH-])CC[NH-].[O-][Cl+3]([O-])([O-])O
inactive: dose: 50.0 mg/kg/injection, schedule: Q01DX001 (ip), vehicle: saline 103 % of control | [6] 100 % of control | [17] 103 % of control | [13] 105 % of control

Oc1ccc(C2CC3CCC2C3)cc1 (configuration not stated)
inactive: dose: 100.0 mg/kg/injection, schedule: Q04DX003 (ip), vehicle: saline + alcohol 98 % of control | dose: 200.0 mg/kg/injection, schedule: Q04DX003 (ip), vehicle: saline + alcohol 90 % of control | dose: 400.0 mg/kg/injection, schedule: Q04DX003 (ip), vehicle: saline + alcohol 96 % of control

CC1(C)CC1(Br)c1ccccc1 (configuration not stated)
inactive: [6] 96 % of control | [17] 96 % of control | [13] 101 % of control

Cc1cc(Cl)c2ccccc2[n+]1C
inactive: [7] 98 % of control

O=[N+]([O-])c1ccc(C(Br)C(Br)c2ccccc2Cl)cc1 (configuration not stated)
inactive: [18] 96 % of control | [16] 110 % of control | [19] 98 % of control | [20] 100 % of control | [21] 93 % of control | [22] 94 % of control

CC(NC(=O)C1CC2c3cccc4[nH]cc(c34)CC2N(C)C1)C(C)(C)C (configuration not stated)
inactive: dose: 20.0 mg/kg/injection, schedule: Q01DX001 (ip), vehicle: Klucel (hydroxypropylcellulose) (HPC) 96 % of control | dose: 40.0 mg/kg/injection, schedule: Q01DX001 (ip), vehicle: Klucel (hydroxypropylcellulose) (HPC) 101 % of control | dose: 80.0 mg/kg/injection, schedule: Q01DX001 (ip), vehicle: Klucel (hydroxypropylcellulose) (HPC) 104 % of control

C[C@]12CC[C@H]3[C@@H](CC=C4C[C@@H](O)CC[C@@]43C)[C@@H]1CC[C@@H]2N
inactive: dose: 100.0 mg/kg/injection, schedule: Q01DX001 (sc), vehicle: steriod suspending solution 98 % of control | [8] 105 % of control | dose: 200.0 mg/kg/injection, schedule: Q01DX001 (sc), vehicle: steriod suspending solution 101 % of control | [9] 112 % of control | dose: 400.0 mg/kg/injection, schedule: Q01DX001 (sc), vehicle: steriod suspending solution 101 % of control | [10] 118 % of control

CCN(CC)c1ccc(N=C2C=C(C(=O)Nc3ccccc3)C(=O)c3ccccc32)cc1
inactive: [23] 86 % of control | [24] 89 % of control | dose: 400.0 mg/kg/injection, schedule: Q01DX001 (ip), vehicle: other 88 % of control

NS(=O)(=O)c1ccc(S(=O)(=O)N2CCCCC2)cc1
inactive: [18] 90 % of control | [19] 96 % of control

Clc1ccc2c(c1)C(N1CCOCC1)c1cc(Cl)cc(Cl)c1-2 (configuration not stated)
inactive: [25] 102 % of control | [16] 98 % of control | [26] 92 % of control | [20] 96 % of control | [27] 96 % of control | [22] 94 % of control

O=c1ccc2ccccc2[nH]1
inactive: [25] 108 % of control | [23] 105 % of control | [26] 111 % of control | [24] 92 % of control | [27] 113 % of control

O=C(O)/C(=C\c1ccc([N+](=O)[O-])cc1)CCc1ccccc1
inactive: [18] 91 % of control | [19] 92 % of control | [21] 92 % of control
